{"source": "patent US11391726B2", "about": "“MoT cells as a therapeutic screening tool for regulatory t-cell activity” (ARIZONA BOARD OF REGENTS ON BEHALF OF ARIZONA STATE …, priority 2018, dated 2022)", "key": {"MoT cells": {"test_system": "MoT cells", "assay": "CFSE suppression assay: Mabs pre-incubated with MoT cells, then co-cultured with CD3/28-stimulated CD4+ PBMC", "format": "cell-based, human", "details": "Mab pre-incubated with MoT cells 30 minutes, CD4+ PBMC:MoT ratio 1:1/2, CFSE flow cytometry (FIGS. 5D, 5F, 5H)", "description": "(§1) Suppression assays. After IRB approval at Arizona State University (protocol #0601000548), peripheral blood was collected from healthy donors. After Ficoll-Paque Plus gradient separation of the buffy coat, CD4+ cells were purified using EasySep Human CD4^+ T Cell Isolation Kit (Catalog #17952 from Stemcell Technologies). Cells were allowed to rest overnight in cIMDM at 37° C. prior to labeling with CFSE (Carboxyfluorescein succinimidyl ester, from Cayman Chemica cat #10009853) dye to track cell divisions. The following day, CD4^+ T cells were counted, stained with CFSE, washed in PBS and then plated in IMDM with 10% FBS at 3×10^5 cells per well in a 48-well plate coated with OKT3 antibody at 5.0 ug/mL for 2 hours at 37° C. then washed twice in PBS before adding soluble co-stimulatory anti-CD28 (eBioscience clone CD28.6) at 5.0 ug/mL final concentration.\nIn some studies MoT and Jurkat cells were labeled with Cell Trace FarRed dye (Thermofisher) to gate MoT and Jurkat cells away from CD4^+ PBMC in flow cytometry analysis. Two-fold serial dilutions of MoT and Jurkat cells were added to CD4^+ PBMC, starting at 1.5×10^5 MoT and Jurkat cells (1:1/2 ratio CD4^+ T cells:tumor cells). Final volume per well was 1 mL. Cells were incubated for 5 days. […]"}, "CD4+ PBMC": {"test_system": "CD4+ PBMC", "assay": "CFSE proliferation assay: Mabs co-incubated with CD3/28-stimulated CD4+ PBMC without MoT cells", "format": "cell-based, human", "details": "no MoT cells (FIGS. 5C, 5E, 5G)", "description": "as §1\n(FIG. 5A) Unstimulated PBMC. (FIG. 5B) CD3/28-stimulated CD4^+ PBMC cell division without MoT cells. (FIG. 5C) Anti-GITR, (FIG. 5E) Anti-CCR4 mogamulizumab, and (FIG. 5G) anti-PDL-1 (atezolizumab) co-incubated with PBMCs. (FIG. 5D) Anti-GITR, (FIG. 5F) anti-CCR4 (mogamulizumab), and (FIG. 5H) anti-PDL-1 (atezolizumab) co-incubated with PBMCs and MoT cells (1:½ ratio)."}}, "note": "Entries after “also recorded” stand apart in the source; their conditions may differ.", "data": [{"substance": "atezolizumab", "values": [{"measurement": "reversal of MoT cell-mediated suppression of CD4+ PBMC proliferation", "setting": "MoT cells", "value": "None of the checkpoint inhibitor Mabs including anti-GITR reversed MoT cell-mediated suppression; also recorded: did not reverse suppression"}, {"measurement": "reversal of MoT cell-mediated suppression of CD4+ PBMC proliferation", "setting": "MoT cells; listed as anti-PD-L1", "value": "did not attenuate MoT Treg suppressive activity"}, {"measurement": "suppression or inhibition of CD4+ PBMC proliferation by the Mab alone", "setting": "CD4+ PBMC", "value": "do not suppress or inhibit"}]}]}
